Measurements reported in the supplement of paper PMC10307832.

Columns and labels:
Assay in all cases: relative viability (nuclei count vs DMSO), 5 days (fraction); higher = more cells survive
MLN4924 + Foretinib = compound: NS(=O)(=O)OC[C@@H]1C[C@@H](n2ccc3c(N[C@H]4CCc5ccccc54)ncnc32)C[C@@H]1O [MLN4924] + COc1cc2c(Oc3ccc(NC(=O)C4(C(=O)Nc5ccc(F)cc5)CC4)cc3F)ccnc2cc1OCCCN1CCOCC1 [Foretinib] (partner 0.25 µM)
Summary of the method: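 One day after seeding in 1536-well plates, lung cancer cell lines were dosed by pin tool. Dosing was either single-drug or a fixed anchor-drug dose plus five library-drug doses (not always all listed) in √10 steps. After 5 days, nuclei were stained in one fix-and-stain step and counted on 4× images, and relative viability is the nuclei count of treated wells over that of vehicle wells, given as the median of duplicate plates.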

Carboplatin = compound: C1CC(C1)(C(=O)O)C(=O)O.[NH2-].[NH2-].[Pt+2] [Carboplatin]
Summary of the method: (§1)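 MetaXpress counted nuclei in 4× images of lung cancer cell lines that had been fixed, permeabilised and Hoechst-stained in one step. Before that, cells in 1536-well plates were kept overnight at 37 °C, pinned with five √10-spaced library-drug doses on vehicle-anchored plates, and cultured 5 days without medium change. Viability takes treated-well nuclei over vehicle-well nuclei and uses the median across plates. Plates were accepted only at control CV below 25% and at least one doubling.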

GSK126 = compound: CC[C@H](C)N1C=C(C2=C(C=C(C=C21)C3=CN=C(C=C3)N4CCNCC4)C(=O)NCC5=C(C=C(NC5=O)C)C)C [GSK126]
Summary of the method: as §1

MLN4924 = compound: NS(=O)(=O)OC[C@@H]1C[C@@H](n2ccc3c(N[C@H]4CCc5ccccc54)ncnc32)C[C@@H]1O [MLN4924]
Summary of the method: as §1

Cell Line	relative viability (MLN4924 + Foretinib; first compound 0.04 µM)	relative viability (MLN4924 + Foretinib; first compound 0.1265 µM)	relative viability (MLN4924 + Foretinib; first compound 0.4 µM)	relative viability (MLN4924 + Foretinib; first compound 1.265 µM)	relative viability (MLN4924 + Foretinib; first compound 4 µM)	relative viability (Carboplatin; 0.08 µM)	relative viability (Carboplatin; 0.253 µM)	relative viability (Carboplatin; 0.8 µM)	relative viability (Carboplatin; 2.53 µM)	relative viability (Carboplatin; 8 µM)	relative viability (GSK126; 0.08 µM)	relative viability (GSK126; 0.253 µM)	relative viability (GSK126; 0.8 µM)	relative viability (GSK126; 2.53 µM)	relative viability (GSK126; 8 µM)	relative viability (MLN4924; 0.04 µM)	relative viability (MLN4924; 0.1265 µM)	relative viability (MLN4924; 0.4 µM)	relative viability (MLN4924; 1.265 µM)	relative viability (MLN4924; 4 µM)
NCI-H1437	0.835	1.15	0.739	0.465	0.22	1.03	0.965	0.966	0.905	0.868	1.05	1	0.945	0.92	0.919	0.941	0.988	0.841	0.423	0.281
EMC-BAC-2	0.959	0.593	0.248	0.224	0.282	1.05	0.942	1.16	1.2	0.855	0.978	0.965	0.984	0.989	1.16	0.876	0.906	0.359	0.243	0.257
NCI-H520	0.732	0.502	0.409	0.305	0.205	1.01	0.915	0.947	0.962	0.822	1.21	0.979	0.932	1.22	1.03	0.706	0.563	0.533	0.24	0.243
NCI-H1993	0.624	0.59	0.517	0.553	0.602	0.988	1.02	0.967	0.878	0.8	0.97	0.982	0.955	1.02	1.03	0.877	0.758	0.596	0.531	0.658
HCC-827	0.993	0.591	0.568	0.238	0.144	1.09	1.01	1.01	1.01	0.983	1.05	1.06	1.01	1.01	0.993	0.972	0.852	0.704	0.253	0.183
NCI-H2087	1.13	0.669	0.419	0.107	0.0968	1.14	1.21	0.997	0.999	0.711	1.18	0.945	1	1.15	1.17	1.02	0.969	0.491	0.16	0.0937
HARA	0.838	0.537	0.83	0.0708	0.0645	1.02	0.937	0.932	0.921	0.944	1.07	0.936	0.931	0.855	0.756	0.855	0.834	0.412	0.103	0.127
NCI-H2126	1.14	0.87	1.08	0.335	0.267	1.05	1.03	1.02	0.946	0.948	1.04	1.02	1.06	1.07	1	1.03	1.02	0.785	0.459	0.373
LCLC-103H	0.85	0.896	0.861	0.175	0.15	1.03	0.989	0.992	1.07	0.834	1.02	1.03	1.01	0.994	1.01	0.949	1.02	0.912	0.282	0.312
SK-LU-1	0.924	0.615	0.26	0.14	0.174	1.16	1.07	1.06	0.975	0.802	1.01	1.05	1.02	1.14	1.08	0.99	0.799	0.369	0.191	0.201
EKVX	0.718	0.748	0.59	0.135	0.155	1.01	0.984	0.99	1.05	0.855	1.02	1.08	1.02	1.03	0.982	0.933	0.914	0.685	0.238	0.209
HCC-366	0.907	0.975	0.925	0.447	0.0537	1.04	0.974	1.03	1.02	0.95	1.12	1.03	1.02	1.01	1	1.05	1.02	0.674	0.228	0.0735
NCI-H1650	0.92	0.951	0.325	0.217	0.19	0.995	0.888	0.933	0.812	0.638	1.05	0.948	0.954	1.02	1.03	0.708	0.578	0.286	0.171	0.201
COR-L23	0.985	0.844	0.644	0.299	0.141	0.961	0.928	0.979	0.759	0.417	1.1	1.02	0.944	0.986	1.02	0.98	0.882	0.661	0.233	0.135
NCI-H647	0.818	0.848	0.188	0.0561	0.0661	1.13	1.02	0.986	0.944	0.767	0.879	0.964	0.896	1.05	1	0.881	0.619	0.221	0.0551	0.0691
LXF-289	0.846	0.564	0.565	0.188	0.0965	1.03	1.05	0.967	0.987	0.973	1.03	1.05	1.02	1.01	1.01	0.887	0.822	0.556	0.208	0.146
